Assay [1] deals with rat isolated perfused heart. The assay can be described thus: Reversal time of coronary vasodilation in rat isolated perfused hearts.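 Note: each agonist bolused at its minimal concentration giving equal maximal coronary conductance rise.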 Conditions: bolus, rat isolated perfused heart. As for the experimental part:
FIG. 10. Reversal of effect of agonist stimulation on CC. […] CC was measured at 8, 16 and 24 minutes after administration (FIG. 10A). […] R and N are the correlation coefficient and number of agonists, respectively.
The relationship between the affinity of agonists for the A2A receptor and the rate of reversal of agonist-mediated responses (coronary vasodilation in heart and cAMP accumulation in PC12 cells) upon termination of drug administration were determined. […] The duration of the coronary vasodilation in isolated rat hearts caused by adenosine, the CVT compounds, and other agonists measured as the time to 50% and 90% (t0.5 and t0.9, respectively) reversal of the increases in coronary conductance after termination of drug administration are summarized in Table 4.

The target in assay [2] is A2A adenosine receptors (Sus scrofa, UniProt K9IW67). The assay can be described thus: Competitive radioligand binding, [3H]ZM241385, pig striatum membranes. The method, then: Membranes were also obtained from porcine striatial cells as follows. […] The homogenate was filtered through cotton gauze and centrifuged at 48,000g for 15 minutes at 4° C. […] The final pellet was frozen at −80° C. until used for receptor binding assays.
Chain of A2A adenosine receptors (Sus scrofa, UniProt K9IW67) (K9IW67 1-409): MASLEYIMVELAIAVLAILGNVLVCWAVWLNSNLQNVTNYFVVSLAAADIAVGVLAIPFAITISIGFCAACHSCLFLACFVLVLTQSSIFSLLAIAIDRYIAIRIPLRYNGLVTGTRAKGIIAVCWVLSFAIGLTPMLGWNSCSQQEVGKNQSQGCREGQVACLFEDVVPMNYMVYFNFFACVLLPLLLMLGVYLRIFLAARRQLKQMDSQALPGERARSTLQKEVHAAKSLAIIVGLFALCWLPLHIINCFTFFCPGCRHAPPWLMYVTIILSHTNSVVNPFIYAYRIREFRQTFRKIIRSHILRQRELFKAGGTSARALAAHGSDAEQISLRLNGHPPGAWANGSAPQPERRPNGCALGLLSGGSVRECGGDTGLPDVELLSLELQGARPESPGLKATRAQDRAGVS

In assay [3] the target is A2A adenosine receptors (Rattus norvegicus, UniProt P30543). As to the kind of experiment: Competitive radioligand binding, [3H]ZM241385, PC12 cell membranes. The settings on record: PC12 cells (A2A).
Chain of A2A adenosine receptors (Rattus norvegicus, UniProt P30543) (P30543 whole entry, the tested form may be a part): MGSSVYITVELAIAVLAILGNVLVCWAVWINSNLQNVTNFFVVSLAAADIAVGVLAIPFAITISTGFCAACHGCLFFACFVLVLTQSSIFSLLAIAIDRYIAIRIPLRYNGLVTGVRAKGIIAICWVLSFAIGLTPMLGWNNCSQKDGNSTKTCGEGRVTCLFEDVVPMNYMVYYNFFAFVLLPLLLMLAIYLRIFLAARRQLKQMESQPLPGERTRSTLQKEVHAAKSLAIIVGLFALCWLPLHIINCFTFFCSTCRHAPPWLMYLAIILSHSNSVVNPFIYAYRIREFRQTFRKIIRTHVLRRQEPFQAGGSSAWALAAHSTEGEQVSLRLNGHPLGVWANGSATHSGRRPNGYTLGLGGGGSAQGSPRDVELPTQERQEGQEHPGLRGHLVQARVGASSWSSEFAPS
Protocol: Rat pheochromocytoma PC12 cells were obtained from the American Type Culture Collection and grown in DMEM with 5% fetal bovine serum, 10% horse serum, 0.5 mmol/L L-glutamine, 100 U/mL penicillin, 0.1 mg/l mL streptomycin, and 2.5 μg/mL amphotericin.
Cell membranes were harvested from the cell lines by detaching cells from the culture plates into ice-cold 50 mmol/L Tris-HCl buffer (pH 7.4). The cell suspensions were homogenized and centrifuged at 48,000g for 15 minutes. The pellets were washed three times by re-suspension in ice-cold Tris-HCl buffer and centrifugation. The final pellet was re-suspended in Tris-HCl, aliquoted and frozen at −80° C. until used for receptor binding assays.
Briefly, membrane suspensions, obtained from cells expressing either adenosine receptor subtypes A1, A2A, A2B or A3were incubated for 2 hours at room temperature in 50 mmol/L Tris-HCl buffer (pH 7.4) containing ADA (1U/mL). […] At the end of the incubation, free radioligand was separated from membrane-bound radioligand by filtration through Whatman GF/C glass fiber filters using a Brandel tissue harvester (Gaithersburg, Md.). Triplicate determinations were performed for each concentration of unlabelled compound.
The test system of assay [4] is rat isolated perfused heart. As to the kind of experiment: Coronary conductance / coronary perfusion pressure in isolated perfused rat hearts. The settings on record: Rattus norvegicus. As for the experimental part:
Briefly, rats of either sex weighing 230-260 grams were anesthetized by intraperitoneal injection of a mixture of ketamine (100 mg/ml) and xylazine (20 mg/ml). The chest of each rat was opened and the heart removed, and rinsed in ice-cold modified Krebs-Henseleit (K-H) solution containing NaCl 117.9, KCl 4.5, CaCl2 2.5, MgSO4 1.18, KH2PO4 1.18, pyruvate 2.0 mmo/L. The aorta was cannulated and the heart was perfused at a flow rate of 10 ml/min with modified K-H solution. The K-H solution (pH 7.4) was gassed continuously with 95% O2 and 5% CO2 and warmed to 35±0.5° C. The heart was electrically paced at a fixed cycle length of 240 ms (250 beats/min) using a bipolar electrode placed in the left atrium. The electrical stimuli were generated by a Grass stimulator (Model S48, W. Warwick, R.I.) and delivered through a Stimuli Isolation Unit (Model SIU5, Astro-Med, Inc., NY) as square-wave pulses of 3-msec in duration and with an amplitude of at least twice the threshold intensity.
The identity of the adenosine receptor subtype (A1 or A2A) mediating the coronary vasodilation was determined.
Coronary perfusion pressure (CPP) was measured using a pressure transducer that was connected to the aortic cannula via a T-connector positioned approximately 3 cm above the heart. CPP was monitored throughout an experiment and recorded either on a chart recorder (Gould Recorder 2200S, Valley View, Ohio) or a computerized recording system (PowerLab/4S, ADInstruments Pty Ltd, Australia). Only hearts with CPP ranging from 60 to 85 mmHg (in the absence of drugs) were used in the study. CC conductance (in ml/min/mmHg) was calculated as the ratio between coronary perfusion rate (10 ml/min) and CPP.

Assay [5] deals with T1, A2A adenosine receptors (PC12 cells) (Rattus norvegicus, UniProt P30543). As to the kind of experiment: cAMP accumulation in PC12 cells.
T1 sequence (P30543 whole entry): as the sequence (P30543 whole entry, the tested form may be a part) above
Protocol: Effects of adenosine receptor agonists on cAMP content in intact PC12 cells. […] Cyclic AMP levels were determined as described under “Methods”. Values represent mean±SEM of results of triplicate samples from three experiments. […] Values represent mean±SEM of triplicate determinants from one representative experiment.
Briefly, PC12 cells were rinsed three times with Hanks' balanced saline solution (HBSS), detached using a cell lifter, and pelleted by centrifugation at 500 g for 5 minutes. Aliquots of the cell suspension (0.1 to 0.2 mg protein) were placed in microfuge tubes with 250 μL of HBSS containing rolipram (50 μmol/L) to inhibit phosphodiesterases that degrade cAMP_and warmed to 37° C. Appropriate drugs were added to the cell suspensions, and incubations were allowed to continue for 10 minutes. Tubes were placed in a boiling water bath for 5 minutes to terminate the incubation. The samples were then cooled to room temperature, diluted by the addition of 1 mL of 10 mmol/L Tris-HCl buffer at pH 7.4, and then centrifuged for 2 minutes at 13000 g.
The samples were then incubated at 4° C. for 16 hours. At the end of the incubation, 70 μL of a 50% (wt/vol) hydroxyapatite suspension was added to each tube. The suspensions were gently agitated and then incubated for 10 minutes at 4° C. Antibody-bound radioactivity adsorbed to hydroxyapatite was collected onto glass fiber filters by vacuum filtration using a Brandel cell harvester. Radioactivity retained by the filter was counted in a gamma counter. […] The amount of cAMP present in samples was calculated based on a standard curve using known amounts of cAMP.
For assay [6], the target named is T1, A2A adenosine receptors (PC12 cells). As to the kind of experiment: Rate of decline of agonist-stimulated cAMP in PC12 cells after A2A antagonist SCH58261. The settings on record: agonist 1 μM, after addition of SCH58261 (20 μM).
For assay [7], the target named is human A2A adenosine receptors (Homo sapiens, UniProt P29274). As to the kind of experiment: Competitive radioligand binding, [3H]ZM241385, HEK-hA2AAdoR membranes. Conditions: HEK-hA2AAdoR.
Chain of human A2A adenosine receptors (P29274 whole entry): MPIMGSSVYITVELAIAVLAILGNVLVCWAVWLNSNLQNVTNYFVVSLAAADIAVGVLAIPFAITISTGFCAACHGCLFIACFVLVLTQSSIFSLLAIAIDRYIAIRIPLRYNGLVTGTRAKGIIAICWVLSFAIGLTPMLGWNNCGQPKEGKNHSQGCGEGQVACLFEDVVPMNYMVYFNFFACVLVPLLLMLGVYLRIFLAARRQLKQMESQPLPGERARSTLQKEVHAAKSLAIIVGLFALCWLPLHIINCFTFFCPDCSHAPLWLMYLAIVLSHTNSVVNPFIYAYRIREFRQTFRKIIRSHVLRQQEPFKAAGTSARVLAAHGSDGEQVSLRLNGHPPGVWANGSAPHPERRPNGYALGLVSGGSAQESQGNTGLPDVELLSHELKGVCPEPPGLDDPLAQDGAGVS
Protocol: Each point represents the mean±SEM of triplicates pooled from at least three experiments.
ZM241385 was purchased from Tocris Cookson Ltd (Langford, Bristol, UK).
Competitive radiolabeling binding assays were performed to determine the binding affinities of the compounds of the invention for the adenosine receptor subtypes, A1, A2A, A2B and A3. Briefly, membrane suspensions, obtained from cells expressing either adenosine receptor subtypes A1, A2A, A2B or A3were incubated for 2 hours at room temperature in 50 mmol/L Tris-HCl buffer (pH 7.4) containing ADA (1U/mL). […] At the end of the incubation, free radioligand was separated from membrane-bound radioligand by filtration through Whatman GF/C glass fiber filters using a Brandel tissue harvester (Gaithersburg, Md.). Triplicate determinations were performed for each concentration of unlabelled compound.
Assay [8] concerns the target T2, human A1 adenosine receptors (Homo sapiens, UniProt P30542).
T2 construct: expressed in transfected cells
T2 sequence (P30542 1-326): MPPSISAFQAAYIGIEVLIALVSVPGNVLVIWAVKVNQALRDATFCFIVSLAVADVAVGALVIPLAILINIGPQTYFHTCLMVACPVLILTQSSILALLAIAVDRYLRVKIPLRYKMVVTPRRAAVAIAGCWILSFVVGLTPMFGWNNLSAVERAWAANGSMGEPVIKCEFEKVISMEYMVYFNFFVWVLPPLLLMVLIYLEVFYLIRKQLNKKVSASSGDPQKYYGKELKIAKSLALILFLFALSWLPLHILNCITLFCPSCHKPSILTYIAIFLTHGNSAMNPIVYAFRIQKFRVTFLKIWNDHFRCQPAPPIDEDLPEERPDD
As to the kind of experiment: Competitive radioligand binding, [3H]CPX, CHO-hA1AdoR membranes. Conditions: [3H]CPX. The method, then: The cell suspensions were homogenized and centrifuged at 48,000g for 15 minutes. The pellets were washed three times by re-suspension in ice-cold Tris-HCl buffer and centrifugation. The final pellet was re-suspended in Tris-HCl, aliquoted and frozen at −80° C. until used for receptor binding assays.

Assay [9] is described as follows: Coronary blood flow and reversal time, intracoronary infusion in open-chest anesthetized pigs. The format is in vivo. As for the experimental part:
The magnitude of the effect of A2A adenosine receptor agonists on coronary dilation and the duration of the effect was determined in pigs weighing 22-27 kg. […] In addition, animals were used in accordance with the guidelines of the University of Kentucky Institutional Animal Care and Use Protocol.
Anesthesia was maintained with additional sodium pentobarbital (1.5-2 mg/kg, i.v.) every 15-20 minutes. Animals were ventilated via a tracheotomy tube using a mixture of room air and 100% O2. Tidal volume, respiratory rate and fraction of O2 in inspired air were adjusted to maintain arterial blood gas (ABG) and pH values. […] Lactate Ringers solution was administered via an ear or femoral vein as an initial bolus of 300-400 ml followed by a continuous infusion at a rate of 5-7 ml/kg/hr. A catheter was inserted into the femoral artery to monitor arterial blood pressure.
The heart was exposed through a median sternotomy and suspended in a pericardial cradle. Left ventricular pressure (LVP) was measured with a 5F high fidelity pressure sensitive tip transducer (Millar Instruments, Houston, Tex.) placed in the left ventricular cavity via an apical incision and secured with a purse string suture. A segment of the left anterior descending coronary artery (LAD), proximal to the origin of the first diagonal branch, was dissected free of surrounding tissue. A transit time perivascular flow probe (Transonic Systems Inc., Ithaca, N.Y.) was placed around this segment to measure CBF. Proximal to the flow probe, a 24-gauge modified angiocatheter was inserted for intracoronary infusions. […] The A2A adenosine receptors agonists were administered intracoronary.
Relationship between affinity of various agonists for A2A adenosine receptor and the reversal time of their effect to increase coronary conductance was determined in pigs. Each experiment was preceded by a 30-minute stabilization period following the completion of all instrumentation of the animal. Baseline hemodynamic data were then recorded and an intracoronary infusion of an A2A Adenosine receptors agonist was initiated. Each infusion was maintained for 4-5 minutes to allow LAD CBF to reach a steady-state, after which the infusion was terminated. The times to recovery of CBF by 50% (t0.5) and 90% (t0.9) of the difference from peak effect to baseline CBF were recorded. Ten to 15 minutes after CBF returned to pre-drug values a second infusion with a different agonist was started. […] Hemodynamic measurements were made prior to and following the initiation of the phenylephrine infusion. The phenylephrine infusion rate was adjusted during and following the infusions of the adenosine receptor agonists to maintain arterial blood pressure within 5 mmHg of pre-infusion values. The effect of a maximum of three different agonists was determined in each experiment.

[10] abbreviates: [3H]ZM241385, Gpp(NH)p present, read-out: Ki, Pig Strialum (A2A).
Where [11] appears, read: read-out: EC50, Coronary Conductance (Rat Isolated Heart).
Setting [12] is: read-out: pEC50 ± SEM, Coronary Conductance (Rat Isolated Heart) (converted).
[13] abbreviates: read-out: pKi ± SEM, CHO-hA1AdoR (converted).

Like-named read-outs stand apart in the source and are kept apart here.

In the case of `Nc1nc(C#CCOc2ccccc2)nc2c1ncn2C1O[C@@H](CO)[C@H](O)[C@@H]1O` (stereo partly drawn) [CVT-2995], in [1], the “t0.5, time to 50% reversal of the increase in coronary conductance” value worked out at 17.5 ± 1.2 min. Besides, the “t0.9, time to 90% reversal of the increase in coronary conductance” value in assay [1] was 23.2 ± 2.1 min. Besides, the Ki at A2A adenosine receptors [2] (setting [10]) was 14.4 nM; at A2A adenosine receptors [2] ([3H]ZM241385, Gpp(NH)p present, read-out: pKi ± SEM, Pig Strialum (A2A) (converted)), 13.8 nM; on A2A adenosine receptors [3] (Ki, [3H]ZM241385), 53 nM; in [7] (Ki, [3H]ZM241385), 305 nM; in assay [7] (pKi ± SEM, [3H]ZM241385), 302 nM; in assay [8] (read-out: Ki, CHO-hA1AdoR), 866 nM. Moreover, the Ki in [8] (setting [13]) was 851 nM. Also, the EC50 is 0.68 nM in assay [4] (setting [11]); 0.676 nM in assay [4] (setting [12]); 6.6 nM in [5] (EC50, cAMP Accumulation (PC12 cells)); 1.51 nM in assay [5] (pEC50 ± SEM, cAMP Accumulation (PC12 cells)). Further, the “t0.5, rate of decline of cAMP accumulated” value in assay [6] was 3.9 ± 0.6 min.
Consider `Nc1nc(-c2cnn(Cc3ccccc3)c2)nc2c1ncn2C1O[C@@H](CO)[C@H](O)[C@@H]1O` (stereo partly drawn) [CVT-3032], for which the “t0.5, time to 50% reversal of the increase in coronary conductance” value in assay [1] was 4.1 ± 0.3 min. Further, in assay [1], the “t0.9, time to 90% reversal of the increase in coronary conductance” value amounted to 9.8 ± 1.4 min. Further, the Ki is 1590 nM on A2A adenosine receptors [2] (setting [10]); 5520 nM at A2A adenosine receptors [3] (Ki); 13700 nM in [7] (Ki); 13500 nM in assay [7] (pKi ± SEM); 6350 nM in assay [8] (read-out: Ki, CHO-hA1AdoR); 6030 nM in assay [8] (setting [13]). For the same compound, in [9] (30 ug/kg/min intracoronary), the “CBF (fold-increase)” value is 3.78 ± 0.70 fold. The “t0.5 reversal of increase in coronary blood flow” value in [9] (30 ug/kg/min intracoronary) is listed as 2.3 ± 0.6 min. Further, the “t0.9 reversal of increase in coronary blood flow” value in [9] (30 ug/kg/min intracoronary) was found to be 9.6 ± 1.0 min. The EC50 in assay [4] (setting [11]) was 66.5 nM; in assay [4] (setting [12]), 66.1 nM; in assay [5], 613 nM. The “agonist behaviour in PC12 cells” value in assay [5] is reported as “partial A2A agonists”. Moreover, the Emax in assay [5] (PC-12, read-out: maximal response of cAMP accumulation, % of that induced by CGS21680) came out at 65%.
Take `Nc1nc(N/N=C/C2CCCCC2)nc2c1ncn2[C@@H]1O[C@H](CO)[C@@H](O)[C@H]1O` [WRC0470, 2-cyclohexylmethylidenehydrazinoadenosine, reference compound]: the Ki on A2A adenosine receptors [2] is 20.7 nM; on A2A adenosine receptors [3] (Ki), 18 nM; at A2A adenosine receptors [3] (pKi ± SEM), 17 nM; in [8] (read-out: Ki, CHO-hA1AdoR), 7280 nM; in assay [8] (setting [13]) it was 6920 nM. In [9] (1 ug/kg/min intracoronary), the “t0.5 reversal of increase in coronary blood flow” value turned out to be 9.5 ± 0.8 min. Moreover, the “t0.9 reversal of increase in coronary blood flow” value in assay [9] (1 ug/kg/min intracoronary) turned out to be 22.5 ± 1.6 min. The EC50 in assay [4] (setting [11]) is 0.62 nM; in [4] (setting [12]), 0.646 nM.

The values above are taken from US20050175535A1 (CV Therapeutics, Inc., priority 2000, published 2005).
